Activity calls are given as the source filed them.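 How the source made its calls: active means signal drop with a fitted AC50 at or under twice the sample's highest valid dose; inconclusive means flat fit with signal down 30 to 70%, or poor fit; inactive means the rest, including signal rising.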

Test system in one assay: not listed separately
As to the kind of experiment: viability loss in A549 lung cells – cell-based, luminescence, dry powder, set 9, cytotoxicity control, dose response (AID 743355). The following applies: A549 viability, CellTiter-Glo ATP luminescence, 72 h; at 12 µM (top of the series).
In the case of `N#Cc1ccc(N2CCN(C(=O)c3ccc4c(c3)OCO4)CC2)cc1`, the normalized CellTiter-Glo signal change (more negative = more cytotoxic) is -5.47% (inactive).

The same assay, now with this note: A549 viability, CellTiter-Glo ATP luminescence, 72 h; at 26 µM (top of the series).
Regarding `O=C(c1ccc2c(c1)OCO2)N1CCN(c2ccc(OC(F)(F)F)cc2)CC1`, the normalized CellTiter-Glo signal change (more negative = more cytotoxic) is 6.83% (inactive).
Still for that read-out and setting: in the case of `CS(=O)(=O)c1ccc(N2CCN(C(=O)c3ccc4c(c3)OCO4)CC2)cc1` it was -1.14% (inactive); in that of `CC(=O)c1ccc(N2CCN(C(=O)c3ccc(Cl)c(Cl)c3)CC2)cc1`, 5.05% (inactive).
As to `CC(=O)c1ccc(N2CCN(C(=O)c3ccc4ocnc4c3)CC2)cc1`, the normalized CellTiter-Glo signal change (more negative = more cytotoxic) was 4.94% (inactive).
With `COc1cc2c(cc1C(=O)N1CCN(c3ccc(C(C)=O)cc3)CC1)OCO2`, the normalized CellTiter-Glo signal change (more negative = more cytotoxic) is -2.21% (inactive).
With `O=C(c1ccc2c(c1)OCO2)N1CCN(c2ccc(S(=O)(=O)C(F)F)cc2)CC1`, the normalized CellTiter-Glo signal change (more negative = more cytotoxic) was 17.7% (inactive).
With `CC(=O)c1ccc(N2CCN(C(=O)c3cc(Cl)c4c(c3)OCO4)CC2)cc1`, the normalized CellTiter-Glo signal change (more negative = more cytotoxic) is 6.94% (inactive).
With `CC(=O)c1ccc(N2CCN(C(=O)c3cc4c(cn3)OCO4)CC2)cc1`, the normalized CellTiter-Glo signal change (more negative = more cytotoxic) was -11.9% (inactive).
The same measure, in the same setting: the result for `CN(C)S(=O)(=O)c1ccc(N2CCN(C(=O)c3ccc4c(c3)OCO4)CC2)cc1` reads -6.83% (inactive).
Same read-out and setting: in the case of `CC(=O)c1ccc(N2CCN(C(=O)c3ccc4snnc4c3)CC2)cc1` it was -3.89% (inactive).
Still for that read-out and setting: in the case of `CC(=O)c1ccc(N2CCN(C(=O)c3ccc4c(c3C)OCO4)CC2)cc1` it was -3.63% (inactive).
With `CC(=O)c1ccc(N2CCN(C(=O)c3cc4c(cc3Cl)OCO4)CC2)cc1`, the normalized CellTiter-Glo signal change (more negative = more cytotoxic) was 2.51% (inactive).
As to `CC(=O)c1ccc(N2CCN(S(=O)(=O)c3ccc4c(c3)OCO4)CC2)cc1`, the normalized CellTiter-Glo signal change (more negative = more cytotoxic) is -10.1% (inactive).
Regarding `CC(=O)c1ccc(N2CCN(C(=O)c3ccc4c(c3)OC(C)(C)O4)CC2)cc1`, the normalized CellTiter-Glo signal change (more negative = more cytotoxic) is 5.78% (inactive).
As to `COc1ccc(C(=O)N2CCN(c3ccc(C(C)=O)cc3)CC2)cc1OC`, the normalized CellTiter-Glo signal change (more negative = more cytotoxic) is 51.5% (inactive).
`CC(=O)c1ccc(N2CCCN(C(=O)c3ccc4c(c3)OCO4)CC2)cc1`: the normalized CellTiter-Glo signal change (more negative = more cytotoxic) was 9.8% (inactive).
With `CC(=O)c1ccc(N2CCN(C(=O)c3cc4c(cc3C)OCO4)CC2)cc1`, the normalized CellTiter-Glo signal change (more negative = more cytotoxic) is 1.8% (inactive).
Consider `O=C(c1ccc2c(c1)OCO2)N1CCN(c2ccc(S(=O)(=O)C(F)(F)F)cc2)CC1`, for which the normalized CellTiter-Glo signal change (more negative = more cytotoxic) was 21.5% (inactive).
Take `CC(=O)c1ccc(N2CCN(C(=O)c3ccc4c(c3)OC(F)(F)O4)CC2)cc1`: the normalized CellTiter-Glo signal change (more negative = more cytotoxic) was -2.42% (inactive).
As to `CC(=O)c1ccc(N2CCN(C(=O)Nc3ccc4c(c3)OCO4)CC2)cc1`, the normalized CellTiter-Glo signal change (more negative = more cytotoxic) is -14.7% (inactive).
Same read-out and setting: the result for `CC(=O)c1ccc(N2CCN(C(=O)c3ccc4c(c3)OCO4)CC2)cc1` reads -7.97% (inactive).
The same measure, in the same setting: the result for `O=C(c1ccc2c(c1)OCO2)N1CCN(c2ccc(C(F)(F)F)cc2)CC1` reads 1.09% (inactive); that for `CC(=O)c1ccc(N2CC3CC2CN3C(=O)c2ccc3c(c2)OCO3)cc1` (stereo unspecified), -9.16% (inactive); that for `CC(=O)c1ccc(N2CCN(C(=O)c3cccc4c3OCO4)CC2)cc1`, 2.91% (inactive).

The next assay has as its system A549 viability, CellTiter-Glo ATP luminescence, 72 h. Described as above.
Settings: not given
The AC50 is the concentration at which the activity in the assay is half-maximal. With `COc1cc(C(=O)N2CCN(c3ccc(C(C)=O)cc3)CC2)cc2c1OCO2`, the AC50 was > 52 µM (inactive).

The record behind these values is PubChem BioAssay AID743355 (Broad Institute, 2014).
